SMILES strings stand for the structures. pIC50: −log10 of the molar value. Read-outs that look alike come from different tables or passages of the source.

One assay addresses T1, MEK1 (Homo sapiens, UniProt Q02750).
T1 construct: purchased Millipore 14-420 (GST-MEK1); 14-703 (Cot1); host or cells: Cot1: insect cells (SF21)
As to the kind of experiment: MEK1 activation kinase assay (Assay 2, HTRF; Cot1 phosphorylates GST-MEK1). It is filed as biochemical. As for the experimental part:
MEK1 Activation Kinase Assay
The kinase Cot1 activates MEK1 by phosphorylating its activation loop. The inhibitory activity of compounds of the present invention on this activation of MEK1 was quantified employing the HTRF assay described in the following paragraphs.
As substrate for the kinase reaction the unactive C-terminally His6-tagged GST-MEK1 fusion protein (Millipore cat. no 14-420) was used.
Then the kinase reaction was started by the addition of 2 μl of a solution of Cot1 in assay buffer and the resulting mixture was incubated for a reaction time of 20 min at 22° C. The concentration of Cot1 in the assay was adjusted depending of the activity of the enzyme lot and was chosen appropriate to have the assay in the linear range, typical enzyme concentrations were in the range of about 2 ng/μl (final conc. in the 5 μl assay volume).
The resulting mixture was incubated 2 h at 22° C. to allow the binding of the phosphorylated GST-MEK1 to the anti-GST-XL665 and the Eu-cryptate labelled anti-phospho-MEK 1/2 antibody. Subsequently the amount of Ser217/Ser221-phosphorylated substrate was evaluated by measurement of the resonance energy transfer from the Eu-Cryptate-labelled anti-phospho-MEK antibody to the anti-GST-XL665.
(TR-FRET usually uses a lanthanide donor and a delayed reading to cut background.)

The test system of the next assay is colon cancer. Conditions: oral treatment, mouse models, reference [18]; cited from earlier work.
Another assay relates to MEK1/2. Conditions: second-generation MEK1/2 inhibitor, reference [17]; cited from earlier work.
[1] abbreviates: mean values from 2 or more measurements, read-out: Assay 2 IC50 values (nanomolar) (MEK1 activation kinase assay) (values are mean values from 2 or more measurements).
[2] abbreviates: representative example compounds, read-out: IC50 in MEK1 activation kinase assay.

T1 sequence (Q02750 whole entry): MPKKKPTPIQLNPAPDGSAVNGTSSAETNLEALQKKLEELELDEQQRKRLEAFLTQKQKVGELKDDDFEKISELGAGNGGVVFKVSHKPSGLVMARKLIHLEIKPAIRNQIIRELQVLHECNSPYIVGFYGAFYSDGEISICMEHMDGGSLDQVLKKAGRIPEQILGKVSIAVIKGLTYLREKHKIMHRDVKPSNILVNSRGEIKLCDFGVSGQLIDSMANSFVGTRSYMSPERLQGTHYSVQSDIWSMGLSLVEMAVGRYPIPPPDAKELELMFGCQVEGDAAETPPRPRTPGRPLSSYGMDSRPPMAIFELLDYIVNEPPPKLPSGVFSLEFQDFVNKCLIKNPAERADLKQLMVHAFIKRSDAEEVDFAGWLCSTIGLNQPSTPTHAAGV

For orientation: pIC50 means the IC50 on a negative log10 scale, so that one unit is a factor of ten. `CC(C)(O)C(O)CCOc1cc(F)cc(Nc2ccc(I)cc2F)c1C(N)=O` (stereo not shown) [Example 6.1, 2-(3,4-Dihydroxy-4-methyl-pentyloxy)-4-fluoro-6-(2-fluoro-4-iodo-phenylamino)-benzamide]: the pIC50 at MEK1 (setting [1]) is 7.71.
Regarding `CC(O)(CO)CCOc1cc(F)cc(Nc2ccc(I)cc2F)c1C(N)=O` (stereo not shown) [Example 6.2, 2-(3,4-Dihydroxy-3-methyl-butoxy)-4-fluoro-6-(2-fluoro-4-iodo-phenylamino)-benzamide], the pIC50 at MEK1 (setting [1]) is 7.16.
Regarding `C#Cc1ccc(Nc2cc(F)cc(Oc3cccc(NS(=O)(=O)N(C)C)c3)c2C(N)=O)c(F)c1` [Example 7.2, 2-[3-[[(dimethylamino)sulfonyl]amino]phenoxy]-4-fluoro-6-[(4-ethynyl-2-fluorophenyl)amino]-benzamide], the pIC50 on MEK1 (setting [1]) was 7.87.
`C#Cc1ccc(Nc2cc(F)cc(Oc3cccc(NS(=O)(=O)NCCC)c3)c2C(N)=O)c(F)c1` [Example 7.3, 2-[3-[[(propylamino)sulfonyl]amino]phenoxy]-4-fluoro-6-[(4-ethynyl-2-fluorophenyl)amino]-benzamide]: the pIC50 on MEK1 (setting [1]) is 7.33.
With `C#Cc1ccc(Nc2c(F)c(F)c(F)c(Oc3cccc(NS(=O)(=O)N(C)C)c3)c2C(N)=O)c(F)c1` [Example 7.4, 2-{3-[(dimethylsulfamoyl)amino]phenoxy}-6-[(4-ethynyl-2-fluorophenyl)amino]-3,4,5-trifluorobenzamide], the pIC50 on MEK1 (setting [1]) is 7.91.
On to `CN(C)S(=O)(=O)N(C)c1cccc(Oc2cc(F)cc(Nc3ccc(I)cc3F)c2C(N)=O)c1` [Example 10.6, 6-[3-[[(dimethylamino)sulfonyl](methyl)-amino]phenoxy]-4-fluoro-2-[(2-fluoro-4-iodophenyl)amino]-benzamide], for which the pIC50 is 7.31 on MEK1 (setting [1]) and greater than 6.00 on MEK1 (setting [2]).
The matching figures for `NC(=O)c1c(Nc2ccc(I)cc2F)cc(F)cc1Oc1cccc(C(=O)O)c1` [Example 10.7, 3-[2-Carbamoyl-5-fluoro-3-(2-fluoro-4-iodo-phenylamino)-phenoxy]-benzoic acid]: 7.48 and greater than 6.00.
For the molecule `CS(=O)(=O)c1cccc(Oc2cc(F)cc(Nc3ccc(I)cc3F)c2C(N)=O)c1` [Example 10.8, 4-Fluoro-2-(2-fluoro-4-iodo-phenylamino)-6-(3-methanesulfonyl-phenoxy)-benzamide], the negative-log IC50 (pIC50) on MEK1 (setting [1]) was 7.53; on MEK1 (setting [2]) it was greater than 6.00.
On to `O=C(NOCC1CC1)c1ccc(F)c(F)c1Nc1ccc(I)cc1Cl` [PD184352], for which the “inhibition of colon cancer growth” value in the assay with colon cancer is given as “inhibit colon cancer growth in vivo”. The IC50 entry with MEK1/2 is given as “low nanomolar range”.
